“Also recorded” adds a separate entry of the source. Like-named read-outs stand apart in the source and are kept apart here.
Columns and labels:
DyP [1] = test: Assay of dye-degrading (decolorizing) activity of purified DyP; format: biochemical, Geotrichum candidum Dec 1; conditions: dyes of Table 1
Description: The dye-degrading spectrum of the purified DyP was examined for nine types of dyes and three model compounds. The activity of the purified DyP to degrade these dyes or model compounds was assayed by measuring the degradation rates.
As the dyes, use was made of Reactive blue 5, 19 and 114; AQ-1 and AQ-2; Reactive black 5, Reactive red 33, Reactive yellow 2, and Reactive blue 182.
The dye-degrading activity was measured as follows.
0.2 to 0.4 mM aqueous hydrogen peroxide was added to a mixture solution of 3 mL of 25 mM citrate buffer (adjusted to the optimum pH for the degradation of each of the dyes) containing each dye at a fixed […] (30 to 120 ppm) and 1 mL of 1.86 nM DyP solution, to initiate the enzyme reaction. Reaction was performed at 30° C. for a fixed period of time, to assay the reaction rate.
1 U of the dye-degrading activity was defined as the activity to decolorize 1 μmole Reactive blue 5 or AQ-2 for one minute.

DyP [2] = format: biochemical, Geotrichum candidum Dec 1; conditions: for Specific activity (%): 100 ppm Reactive blue 5, no addition = 100
Excerpt: […], zinc, copper (divalent), potassium, iron (divalent) and sodium were concurrently present in a reaction solution comprising DyP and 100 ppm Reactive blue 5, so as to examine the effects of these metal ions on the relative activity of the DyP enzyme.

DyP [3] = test: Oxidation of model compounds by DyP (absorbance); format: biochemical, Geotrichum candidum Dec 1; conditions: for Oxidation rate: 2.79 nM DyP, 0.2 mM hydrogen peroxide, 25 mM citrate buffer, pH and initial concentration (mM) as in columns c2, c3, 470 nm or 465 nm; for Degradation by DyP (in words): model compounds of Table 2
Description: As the model compounds, additionally, use was made of 2,6-dimethoxyphenol, guaiacol and veratryl alcohol.
As to 2,6-dimethoxyphenol used as a model compound, alternatively, absorbance at 470 nm was calorimetrically measured, which emerged via oxidation.
That is to say, a mixture solution of 2.79 nM DyP and 0.2 mM 2,6-dimethoxyphenol was reacted with 25 mM citrate buffer (pH 4.5) containing 0.2 mM hydrogen peroxide.
As to guaiacol, 1 mM guaiacol was used in place of 0.2 mM 2,6-dimethoxyphenol, for absorbance measurement at 465 nm.

[4] = Temperature stability of peroxidase (remaining activity after storage); format: physicochemical; conditions: 25 mM citrate buffer
Description: After the inventive dye-degrading enzyme DyP was stored at a fixed temperature for a fixed period of time, the ratio of the remaining activity was subsequently evaluated. Specifically, a solution of the dye-degrading enzyme DyP in 25 mM citrate buffer was stored at 30° C. or 40° C. for 14 days.
So as to compare the temperature stability with those of other peroxidases, solutions of individual enzymes in 25 mM citrate buffer were stored at 60° C. for 3 hours, by using a commercially available horse-radish peroxidase (manufactured by Wako Chemical Co., Ltd.; sometimes abbreviated as HRP hereinafter) as the control. Subsequently, the remaining enzyme activities were compared to each other.

Isoelectric focusing = format: physicochemical; conditions: FIG. 2
Description: Then, the isoelectric point of the inventive enzyme was measured. The isoelectric point was measured by isoelectric focusing.
For measurement of isoelectric focusing, a low-pI calibration kit of Multiphor II 2-D for pH 2.5 to pH 6.5, manufactured by Pharmacia, Co. was used. Consequently, the isoelectric point of DyP was assayed as 3.8.

Molecule: Nc1c(S(=O)(=O)[O-])cc(Nc2ccc(S(=O)(=O)[O-])c(Nc3nc(Cl)nc(Nc4cccc(S(=O)(=O)[O-])c4)n3)c2)c2c1C(=O)c1ccccc1C2=O.[Na+].[Na+].[Na+] [Reactive blue 5]
- Degradation by DyP (in words) (DyP [1]): excellent degradation activity

Molecule: [Na+] [Na^+, sodium]
- Specific activity (%) (DyP [2]; metal ion 5 mM): 81%

Molecule: COc1cccc(OC)c1O [2,6-Dimethoxyphenol, 2,6-dimethoxyphenol]
- Oxidation rate (DyP [3]): 0.29 ΔOD/min
- Degradation by DyP (in words) (DyP [3]): could efficiently be degraded

Molecule: [Ca+2] [Ca^++, calcium]
- Specific activity (%) (DyP [2]; metal ion 5 mM): 81%

Molecule: Nc1c(S(=O)(=O)[O-])cc(Nc2cccc(S(=O)(=O)CCOS(=O)(=O)[O-])c2)c2c1C(=O)c1ccccc1C2=O.[Na+].[Na+] [Reactive blue 19]
- Degradation by DyP (in words) (DyP [1]): excellent degradation activity

Molecule: [K+] [K^+, potassium]
- Specific activity (%) (DyP [2]; metal ion 5 mM): 81%

Molecule: CNc1cc(S(=O)(=O)[O-])c(N)c2c1C(=O)c1ccccc1C2=O.[Na+] [AQ-2, 1-amino-4-methylamino-2-sodium-anthraquinone sulfonate]
- Degradation by DyP (in words) (DyP [1]): excellent degradation activity

Molecule: COc1ccc(CO)cc1OC [Veratryl alcohol, veratryl alcohol]
- Degradation by DyP (in words) (DyP [3]): could never degrade; also recorded: no reaction

Molecule: [Zn+2] [Zn^++, zinc]
- Specific activity (%) (DyP [2]; metal ion 5 mM): 69%

Molecule: [Cu+2] [Cu^++, copper (divalent)]
- Specific activity (%) (DyP [2]; metal ion 5 mM): 75%

Molecule: COc1ccccc1O [Guaiacol, guaiacol]
- Oxidation rate (DyP [3]): 0.29 ΔOD/min
- Degradation by DyP (in words) (DyP [3]): could efficiently be degraded

Molecule: [Fe+2] [Fe^++, iron (divalent)]
- Inhibition of DyP activity (DyP [2]; ion concurrently present at 0.2 mM): 50%
- Specific activity (%) (DyP [2]; metal ion 0.2 mM): 50%

Molecule: Reactive blue 182
- Degradation by DyP (in words) (DyP [1]): efficiently degraded

B1: DyP: peroxidase derived from Geotrichum candidum Dec 1 strain (FERM BP-7033), amino acid sequence SEQ ID NO. 7 (protein, listed as Geotrichum candidum)
chain: MDLSLFVVSVAVLVGSSSHVNAAKLGARQTRTTPLLTNFPGQAPLPTLTQHTTESGANDTILPLNNIQGDILVGMKKQKERFVFFQVNDATSFKTALKTYVPQRITSAAILISDPSQQPLAFVNLGFSNTGLQALGITDDLGDAQFPDGQFADAANLGDDLSQWVAPFTGTTIHGVFLIGSDQDDFLDQFTDDISSTFGSSITQVQALSGSARPGDQAGHEHFGFLDGISQPSVTGWETTVFPGQAVVPPGIILTGRDGDTGTRPSWALDGSFMAFRHFQQKVPEFNAYTLANAIPANSAGNLTQQEGAEFLGARMFGRWKSGAPIDLAPTADDPALGADPQRNNNFDYSDTLTDETRCPFGAHVRKTNPRQDLGGPVDTFHAMRSSIPYGPETSDAELASGVTAQDRGLLFVEYQSIIGNGFRFQQINWANNANFPFSKPITPGIEPIIGQTTPRTVGGLDPLNQNETFTVPLFVIPKGGEYFFLPSISALTATIAA
- Remaining enzyme activity ([4]; stored at 30° C. for 14 days): 63%
- Remaining enzyme activity ([4]; stored at 40° C. for 14 days): 41%
- Remaining enzyme activity ([4]; stored at 60° C. for 3 hours): 65%
- Isoelectric point (pI) (Isoelectric focusing): 3.8
